Experimental data reported in PMC8154581, “Discovery of Novel Thiophene-arylamide Derivatives as DprE1 Inhibitors with Potent Antimycobacterial Activities” (Journal of Medicinal Chemistry, 2021).
Converted amounts (≈) assume the structure as drawn. Like-named read-outs stand apart in the source and are kept apart here.

Legend:
M. tuberculosis H37Rv = experiment: MIC against replicating M. tuberculosis H37Rv, microplate Alamar blue assay (MABA); type: cell-based
Vero cells = experiment: Cytotoxicity assay in Vero cells (MTT); type: cell-based; settings: for IC50: Chlorocebus sabaeus, Vero cells, 48 h, read-out: IC50 (Vero)
[1] = Mycobacterium tuberculosis, H37RV, against M. tuberculosis H37Rv, Tables 1-3, read-out: MIC
[2] = Mycobacterium tuberculosis, H37RV, supplementary CSV, same values as Tables 1-3, read-out: Minimal inhibit concentration
[3] = against M. tuberculosis H37Rv, Tables 1-3

CCCNC(=O)c1ccc(C(=O)Nc2sccc2C(=O)NC(=O)OCC)cc1 [Compound 23a, Ethyl (2-(4-(Propylcarbamoyl)benzamido)thiophene-3-carbonyl)carbamate]
MIC (M. tuberculosis H37Rv; [1]): 0.2 µg/mL (≈ 0.496 µM) | MIC (M. tuberculosis H37Rv; [2]): 0.2 µg/mL (≈ 0.496 µM) | MIC (M. tuberculosis H37Rv; [3]): 0.20 µg/mL (≈ 0.496 µM) | melting point: 219 to 220 °C | SI (Vero cells): >320 | IC50 (Vero cells): > 64 µg/mL

CCOC(=O)NC(=O)c1ccsc1NC(=O)c1ccc(C(=O)N(C)CC)cc1 [Compound 23b, Ethyl (2-(4-(Ethyl(methyl)carbamoyl)benzamido)thiophene-3-carbonyl)carbamate]
MIC (M. tuberculosis H37Rv; [1]): 0.95 µg/mL (≈ 2.35 µM) | MIC (M. tuberculosis H37Rv; [2]): 0.95 µg/mL (≈ 2.35 µM) | melting point: 161 to 162 °C | SI (Vero cells): >67 | IC50 (Vero cells): > 64 µg/mL

CCOC(=O)NC(=O)c1ccsc1NC(=O)c1ccc(C(=O)N(CC)CC)cc1 [Compound 23c, Ethyl (2-(4-(Diethylcarbamoyl)benzamido)thiophene-3-carbonyl)carbamate]
MIC (M. tuberculosis H37Rv; [1]): 0.28 µg/mL (≈ 0.671 µM) | MIC (M. tuberculosis H37Rv; [2]): 0.28 µg/mL (≈ 0.671 µM) | melting point: 178 to 179 °C | SI (Vero cells): >229 | IC50 (Vero cells): > 64 µg/mL

CCOC(=O)NC(=O)c1ccsc1NC(=O)c1ccc(C(=O)NC23CC4CC(CC(C4)C2)C3)cc1 [Compound 23d, Ethyl (2-(4-(((3S,5S,7S)-Adamantan-1-yl)carbamoyl)benzamido)thiophene-3-carbonyl)carbamate]
MIC (M. tuberculosis H37Rv; [1]): 0.12 µg/mL (≈ 0.242 µM) | MIC (M. tuberculosis H37Rv; [2]): 0.12 µg/mL (≈ 0.242 µM) | melting point: 157 to 158 °C | SI (Vero cells): 16 | IC50 (Vero cells): 1.96 µg/mL (≈ 3.95 µM)

CCOC(=O)NC(=O)c1ccsc1NC(=O)c1ccc(C(=O)NC2CCCCC2)cc1 [Compound 23e, Ethyl (2-(4-(Cyclohexylcarbamoyl)benzamido)thiophene-3-carbonyl)carbamate]
MIC (M. tuberculosis H37Rv; [1]): 0.5 µg/mL (≈ 1.13 µM) | MIC (M. tuberculosis H37Rv; [2]): 0.5 µg/mL (≈ 1.13 µM) | melting point: > 250 °C | SI (Vero cells): >128 | IC50 (Vero cells): > 64 µg/mL

CCOC(=O)NC(=O)c1ccsc1NC(=O)c1ccc(C(=O)NC2CCC(C)(C)CC2)cc1 [Compound 23f, Ethyl (2-(4-((4,4-Dimethylcyclohexyl)carbamoyl)benzamido)thiophene-3-carbonyl)carbamate]
MIC (M. tuberculosis H37Rv; [1]): 0.94 µg/mL (≈ 1.99 µM) | MIC (M. tuberculosis H37Rv; [2]): 0.94 µg/mL (≈ 1.99 µM) | melting point: > 250 °C | SI (Vero cells): >68 | IC50 (Vero cells): > 64 µg/mL

CCOC(=O)NC(=O)c1ccsc1NC(=O)c1ccc(C(=O)Nc2ccccc2)cc1 [Compound 23g, Ethyl (2-(4-(Phenylcarbamoyl)benzamido)thiophene-3-carbonyl)carbamate]
MIC (M. tuberculosis H37Rv; [1]): 0.12 µg/mL (≈ 0.274 µM) | MIC (M. tuberculosis H37Rv; [2]): 0.12 µg/mL (≈ 0.274 µM) | melting point: > 250 °C | SI (Vero cells): 191 | IC50 (Vero cells): 23 µg/mL (≈ 52.5 µM)

CCOC(=O)NC(=O)c1ccsc1NC(=O)c1ccc(C(=O)N2CCCC2)cc1 [Compound 23i, Ethyl (2-(4-(Pyrrolidine-1-carbonyl)benzamido)thiophene-3-carbonyl)carbamate]
MIC (M. tuberculosis H37Rv; [1]): 0.2 µg/mL (≈ 0.481 µM) | MIC (M. tuberculosis H37Rv; [2]): 0.2 µg/mL (≈ 0.481 µM) | IC50 (Vero cells): > 64 µg/mL

CCOC(=O)NC(=O)c1ccsc1NC(=O)c1ccc(C(=O)N2CCCCCC2)cc1 [Compound 23k, Ethyl (2-(4-(Azepane-1-carbonyl)benzamido)thiophene-3-carbonyl)carbamate]
MIC (M. tuberculosis H37Rv; [1]): 0.22 µg/mL (≈ 0.496 µM) | MIC (M. tuberculosis H37Rv; [2]): 0.22 µg/mL (≈ 0.496 µM) | IC50 (Vero cells): 48.4 µg/mL (≈ 109 µM)

CCOC(=O)NC(=O)c1ccsc1NC(=O)c1ccc(C(=O)N2CCC(C)CC2)cc1 [Compound 23l, Ethyl (2-(4-(4-Methylpiperidine-1-carbonyl)benzamido)thiophene-3-carbonyl)carbamate]
MIC (M. tuberculosis H37Rv; [1]): 0.03 µg/mL (≈ 0.0676 µM) | MIC (M. tuberculosis H37Rv; [2]): 0.03 µg/mL (≈ 0.0676 µM) | IC50 (Vero cells): > 64 µg/mL

CCOC(=O)NC(=O)c1ccsc1NC(=O)c1ccc(C(=O)N2CCC(F)(F)CC2)cc1 [Compound 23n, Ethyl (2-(4-(4,4-Difluoropiperidine-1-carbonyl)benzamido)thiophene-3-carbonyl)carbamate]
MIC (M. tuberculosis H37Rv; [1]): 0.25 µg/mL (≈ 0.537 µM) | MIC (M. tuberculosis H37Rv; [2]): 0.25 µg/mL (≈ 0.537 µM) | IC50 (Vero cells): > 64 µg/mL

CCOC(=O)NC(=O)c1ccsc1NC(=O)c1ccc(C(=O)N2CCOCC2)cc1 [Compound 23o, Ethyl (2-(4-(Morpholine-4-carbonyl)benzamido)thiophene-3-carbonyl)carbamate]
MIC (M. tuberculosis H37Rv; [1]): 1.66 µg/mL (≈ 3.85 µM) | MIC (M. tuberculosis H37Rv; [2]): 1.66 µg/mL (≈ 3.85 µM) | melting point: 159 to 160 °C

CCOC(=O)NC(=O)c1ccsc1NC(=O)c1cccc(C(=O)N2CCCCC2)c1 [Compound 24a, Ethyl (2-(3-(Piperidine-1-carbonyl)benzamido)thiophene-3-carbonyl)carbamate]
MIC (M. tuberculosis H37Rv; [1]): 3.7 µg/mL (≈ 8.61 µM) | MIC (M. tuberculosis H37Rv; [2]): 3.7 µg/mL (≈ 8.61 µM)

CCOC(=O)NC(=O)c1ccsc1NC(=O)c1ccc(C(=O)N2CCCCC2)cc1F [Compound 24b, Ethyl (2-(2-Fluoro-4-(piperidine-1-carbonyl)benzamido)thiophene-3-carbonyl)carbamate]
MIC (M. tuberculosis H37Rv; [1]): 0.12 µg/mL (≈ 0.268 µM) | MIC (M. tuberculosis H37Rv; [2]): 0.12 µg/mL (≈ 0.268 µM) | IC50 (Vero cells): > 64 µg/mL

CCOC(=O)NC(=O)c1ccsc1NC(=O)c1ccc(C(=O)N2CCCCC2)c(C)c1 [Compound 24g, Ethyl (2-(3-Methyl-4-(piperidine-1-carbonyl)benzamido)thiophene-3-carbonyl)carbamate]
MIC (M. tuberculosis H37Rv; Mycobacterium tuberculosis, H37RV, against M. tuberculosis H37Rv, Tables 1-3): 0.12 µg/mL (≈ 0.271 µM) | MIC (M. tuberculosis H37Rv; [2]): 0.12 µg/mL (≈ 0.271 µM) | IC50 (Vero cells): 53.1 µg/mL (≈ 120 µM)

CCOC(=O)NC(=O)c1ccsc1NC(=O)c1ccc2cc(C(=O)N3CCCCC3)ccc2c1 [Compound 24h, Ethyl (2-(6-(Piperidine-1-carbonyl)-2-naphthamido)thiophene-3-carbonyl)carbamate]
MIC (M. tuberculosis H37Rv; [1]): 3.13 µg/mL (≈ 6.53 µM) | MIC (M. tuberculosis H37Rv; [2]): 3.13 µg/mL (≈ 6.53 µM) | melting point: 177 to 178 °C

CCOC(=O)NC(=O)c1ccsc1NC(=O)c1ccc(-c2ccc(C(=O)N3CCCCC3)cc2)cc1 [Compound 24i, Ethyl (2-(4′-(Piperidine-1-carbonyl)-[1,1′-biphenyl]-4-carboxamido)thiophene-3-carbonyl)carbamate]
MIC (M. tuberculosis H37Rv; [1]): 7.76 µg/mL (≈ 15.3 µM) | MIC (M. tuberculosis H37Rv; [2]): 7.76 µg/mL (≈ 15.3 µM)

CCOC(=O)NC(=O)c1ccsc1NC(=O)c1cc(C(=O)N2CCCCC2)c[nH]1 [Compound 24l, Ethyl (2-(4-(Piperidine-1-carbonyl)-1H-pyrrole-2-carboxamido)thiophene-3-carbonyl)carbamate]
MIC (M. tuberculosis H37Rv; [1]): 1.77 µg/mL (≈ 4.23 µM) | MIC (M. tuberculosis H37Rv; [2]): 1.77 µg/mL (≈ 4.23 µM) | melting point: 183 to 184 °C

CCNC(=O)NC(=O)c1ccsc1NC(=O)c1ccc(C(=O)N2CCCCC2)cc1 [Compound 25c, N-(Ethylcarbamoyl)-2-(4-(piperidine-1-carbonyl)benzamido)thiophene-3-carboxamide]
MIC (M. tuberculosis H37Rv; [1]): > 32 µg/mL | MIC (M. tuberculosis H37Rv; [2]): > 32 µg/mL | melting point: 223 to 224 °C

NC(=O)c1ccsc1NC(=O)c1ccc(C(=O)N2CCCCC2)cc1 [Compound 25d, 2-(4-(Piperidine-1-carbonyl)benzamido)thiophene-3-carboxamide]
MIC (M. tuberculosis H37Rv; [1]): > 32 µg/mL | MIC (M. tuberculosis H37Rv; [2]): > 32 µg/mL

COC(=O)C1CN(C(=O)c2ccsc2NC(=O)c2ccc(C(=O)N3CCCCC3)cc2)C1 [Compound 25e, Methyl 1-(2-(4-(Piperidine-1-carbonyl)benzamido)thiophene-3-carbonyl)azetidine-3-carboxylate]
MIC (M. tuberculosis H37Rv; [1]): > 32 µg/mL | MIC (M. tuberculosis H37Rv; [2]): > 32 µg/mL | melting point: 154 to 155 °C

COC(=O)C1CCN(C(=O)c2ccsc2NC(=O)c2ccc(C(=O)N3CCCCC3)cc2)CC1 [Compound 25f, Methyl 1-(2-(4-(Piperidine-1-carbonyl)benzamido)thiophene-3-carbonyl)piperidine-4-carboxylate]
MIC (M. tuberculosis H37Rv; [1]): 15.5 µg/mL (≈ 32.1 µM) | MIC (M. tuberculosis H37Rv; [2]): 15.5 µg/mL (≈ 32.1 µM) | melting point: 169 to 170 °C

COC(=O)N1CCN(C(=O)c2ccsc2NC(=O)c2ccc(C(=O)N3CCCCC3)cc2)CC1 [Compound 25g, Methyl 4-(2-(4-(Piperidine-1-carbonyl)benzamido)thiophene-3-carbonyl)piperazine-1-carboxylate]
MIC (M. tuberculosis H37Rv; [1]): > 32 µg/mL | MIC (M. tuberculosis H37Rv; [2]): > 32 µg/mL | melting point: 113 to 114 °C

CCOC(=O)N1CCN(C(=O)c2ccsc2NC(=O)c2ccc(C(=O)N3CCCCC3)cc2)CC1 [Compound 25h, Ethyl 4-(2-(4-(Piperidine-1-carbonyl)benzamido)thiophene-3-carbonyl)piperazine-1-carboxylate]
MIC (M. tuberculosis H37Rv; [1]): > 32 µg/mL | MIC (M. tuberculosis H37Rv; [2]): > 32 µg/mL | melting point: 134 to 135 °C

Cc1cnc(NC(=O)c2ccsc2NC(=O)c2ccc(C(=O)N3CCCCC3)cc2)s1 [Compound 25i, N-(5-Methylthiazol-2-yl)-2-(4-(piperidine-1-carbonyl)benzamido)thiophene-3-carboxamide]
MIC (M. tuberculosis H37Rv; [1]): > 32 µg/mL | MIC (M. tuberculosis H37Rv; [2]): > 32 µg/mL | melting point: 236 to 238 °C

Cc1cnc(NC(=O)c2ccsc2NC(=O)c2ccc(C(=O)N3CCCCC3)cc2)cn1 [Compound 25m, N-(5-Methylpyrazin-2-yl)-2-(4-(piperidine-1-carbonyl)benzamido)thiophene-3-carboxamide]
MIC (M. tuberculosis H37Rv; [1]): > 32 µg/mL | MIC (M. tuberculosis H37Rv; [2]): > 32 µg/mL | melting point: 177 to 179 °C

Cc1cccc(NC(=O)c2ccsc2NC(=O)c2ccc(C(=O)N3CCCCC3)cc2)n1 [Compound 25n, N-(6-Methylpyridin-2-yl)-2-(4-(piperidine-1-carbonyl)benzamido)thiophene-3-carboxamide]
MIC (M. tuberculosis H37Rv; [1]): > 32 µg/mL | MIC (M. tuberculosis H37Rv; [2]): > 32 µg/mL | melting point: 171 to 174 °C

Cc1cc(C)nc(NC(=O)c2ccsc2NC(=O)c2ccc(C(=O)N3CCCCC3)cc2)n1 [Compound 25p, N-(4,6-Dimethylpyrimidin-2-yl)-2-(4-(piperidine-1-carbonyl)benzamido)thiophene-3-carboxamide]
MIC (M. tuberculosis H37Rv; [1]): > 32 µg/mL | MIC (M. tuberculosis H37Rv; [2]): > 32 µg/mL | melting point: 189 to 190 °C

Cc1ccc2sc(NC(=O)c3ccsc3NC(=O)c3ccc(C(=O)N4CCCCC4)cc3)nc2c1 [Compound 25q, N-(5-Methylbenzo[d]thiazol-2-yl)-2-(4-(piperidine-1-carbonyl)benzamido)thiophene-3-carboxamide]
MIC (M. tuberculosis H37Rv; [1]): > 32 µg/mL | MIC (M. tuberculosis H37Rv; [2]): > 32 µg/mL | melting point: > 250 °C

COc1nc2ccc(Br)cc2cc1[C@@H](c1ccccc1)[C@@](O)(CCN(C)C)c1cccc2ccccc12 [bedaquiline, reference compound]
MIC (M. tuberculosis H37Rv; Mycobacterium tuberculosis, H37RV, Table 4, read-out: MIC H37Rv): 0.036 µg/mL (≈ 0.0648 µM)

N-(4-Methylpyridin-2-yl)-2-(4-(piperidine-1-carbonyl)benzamido)thiophene-3-carboxamide [Compound 25o]
MIC (M. tuberculosis H37Rv; [3]): >32 µg/mL | Minimal inhibit concentration (M. tuberculosis H37Rv; supplementary CSV, same values as Tables 1-3): >32 µg/mL
